{"source": "patent US20240315993A1", "about": "“ANTIPARASITIC COMPOUNDS” (Intervet Inc., priority 2021, published 2024)", "key": {"[1]": {"test_system": "Adult fleas (Ctenocephalides felis)", "test": "Flea contact assay", "details": "48 h, read-out: flea inhibition (% of dead+damaged fleas)", "experimental": "(§1) Adult fleas (Ctenocephalides felis) were exposed to filter paper impregnated with declining concentrations of a test compound (dissolved in a DMSO-emulsifier-deionized water mixture). After approximately 48 hours of continuous contact exposure, flea inhibition (% of dead+damaged fleas per test concentration) was assessed. The vitality of used parasites was confirmed in negative control groups (i.e., an untreated control and a solvent control)."}, "[2]": {"test_system": "Adult fleas (Ctenocephalides felis)", "test": "Flea feeding assay", "details": "48 h, read-out: flea inhibition (% of dead+damaged fleas)", "experimental": "as §1, with “felis) of defined age” for “felis)”, “fed on artificial membranes with blood spiked” for “exposed to filter paper impregnated”, “DMSO-emulsifier-blood” for “DMSO-emulsifier-deionized water”, “feeding,” for “contact exposure,”, “(i.e., %” for “(%”"}, "[3]": {"test_system": "Fly larvae I (Lucilia cuprina)", "test": "Fly larvae contact/feeding assay", "details": "48 h, read-out: Inhibition of fly larvae development", "experimental": "Fly larvae I (Lucilia cuprina) were grown in medium spiked with declining concentrations of a test compound (dissolved in a DMSO-emulsifier-deionized water mixture). Inhibition of fly larvae development (%) was assessed after approximately 48 hours of continuous exposure. The vitality of used parasites was confirmed in negative control groups (i.e., an untreated control and a solvent control)."}, "[4]": {"test_system": "larvae of Rhipicephalus microplus isolates with known resistance profiles", "test": "Tick larvae resistance assay (larval immersion test, LIT)", "experimental": "A tick resistance assay (i.e., larval immersion test, LIT) was carried out using larvae of several Rhipicephalus microplus isolates with known resistance profiles (i.e.: fully susceptible; resistant to dieldrin, coumaphos, DDT, chlorpyriphos, flumethrin, cypermethrin, amitraz, fluazuron).\nTick larvae (Rhipicephalus microplus) were immersed for approximately 3 minutes in test compound solution. Tick mortality was assessed approximately 24 hours after contact exposure. The vitality of used parasites was confirmed in negative control groups (i.e., an untreated control and a solvent control)."}, "[5]": {"test_system": "bed bugs (Cimex lectularius)", "test": "Guinea pig - efficacy against bed bug", "type": "in vivo", "how_it_was_run": "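Guinea pigs given 5 mg/kg test compound orally (gavage) or s.c. in 10% DMF/emulsifier plus 90% water for injection, with local co-infestations of Ornithodoros moubata juveniles and Cimex lectularius at several post-treatment times. Engorged parasites scored dead/damaged about 24 h after collection; % inhibition versus pretreatment baseline by modified Schneider-Orelli formula.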"}, "[6]": {"test_system": "Mobile stages of sea lice (pre-adults, adults of Caligus rogercresseyi)", "test": "Adult Caligus rogercresseyi sea lice contact assay", "experimental": "Mobile stages of sea lice (i.e., pre-adults, adults of Caligus rogercresseyi) were exposed to seawater spiked with declining concentrations of a test compound (dissolved in a PEG sea-water mixture). Sea lice inhibition (% of dead+damaged sea lice) was assessed after approximately 1, 24 and 48 hours of continuous exposure in comparison to a negative (solvent) and untreated control group."}, "[7]": {"test_system": "mobile sea lice stages of Lepeophtheirus salmonis-isolates with known resistance profiles", "test": "Sea lice resistance assay", "experimental": "A sea lice resistance assay was carried out using mobile sea lice stages (i.e., pre-adults, adults) of several Lepeophtheirus salmonis-isolates with known resistance profiles (i.e.: fully susceptible, resistant to azametiphos (OP), emamectin benzoate (ML), deltamethrin (SP). Sea lice were exposed to seawater spiked with declining concentrations of a test compound (dissolved in a PEG300/sea-water mixture). Sea lice inhibition (% of dead+damaged sea lice) was assessed after approximately 1, 24 and 48 hour/s of continuous exposure in comparison to a negative (solvent) control group."}, "Lepeophtheirus salmonis [8]": {"test_system": "Lepeophtheirus salmonis", "test": "Salmon - in vivo efficacy against sea lice using gavage administration", "details": "5 mg/kg once by gavage, counted around day 28", "how_it_was_run": "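Salmon given a single oral gavage of 5 mg/kg in 5% DMSO/95% fish oil on day 0, with vehicle controls. L. salmonis copepodid infestations around days −28, −3 and 17; lice counted by stage around day 28, efficacy as % reduction versus control by Abbott's formula.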"}, "Lepeophtheirus salmonis [9]": {"test_system": "Lepeophtheirus salmonis", "test": "Salmon - in vivo efficacy against sea lice using in-feed administration", "details": "for prophylactic efficacy against re-infestation: 1 mg/kg in feed for 7 days", "experimental": "Commercial fish feed pellets were coated with formulated test compound. As formulation DMSO 5%/fish oil 95% was used. Salmon (Salmo solar) were treated orally with 1 mg/kg fish biomass via coated feed for 7 consecutive days. Salmon of the negative control groups received only feed coated with the excipients of the formulation.\nFish of the therapeutic groups were infested with Lepeophtheirus salmonis copepodids twice before treatment (around day −28 and day −3).\nFish of the prophylactic groups were infested at several time points after treatment in 2-week intervals. The fish were assessed for (pre-)adult sea lice approximately 3 weeks after each re-infestation. At each assessment, all (pre-)adult sea lice were removed from the fish. […] Efficacy is expressed as a % reduction of sea lice in treated groups versus a control group using the Abbott's formula."}, "[10]": {"details": "5 mg/kg subcutaneous, after 7 days"}, "[11]": {"details": "5 mg/kg subcutaneous, after 10 days"}, "[12]": {"details": "1 mg/kg fish biomass via coated feed for 7 consecutive days"}}, "data": [{"compound": "O=C(Nc1ccc(F)cc1F)c1cc(NC(=O)[C@H]2[C@H](c3ccc(F)c(Cl)c3)C2(Cl)Cl)ccc1Cl", "note": "[Compound 197]", "values": [{"measurement": "inhibition at 1000 ppm", "setting": "[1]", "result": 80, "unit": "%"}, {"measurement": "inhibition at 1 ppm", "setting": "[2]", "result": 80, "unit": "%"}, {"measurement": "inhibition at 100 ppm", "setting": "[3]", "result": 80, "unit": "%"}, {"measurement": "LC50", "setting": "[4]; isolate resistant to Coumaphos, Flumethrin, Cypermethrin", "result": 0.343, "unit": "ppm"}, {"measurement": "LC50", "setting": "[4]; isolate resistant to Coumaphos, Flumethrin, Cypermethrin, Amitraz", "result": 0.375, "unit": "ppm"}, {"measurement": "LC50", "setting": "[4]; isolate resistant to DDT, Dieldrin, Coumaphos", "result": 0.346, "unit": "ppm"}, {"measurement": "LC50", "setting": "[4]; isolate resistant to DDT, Dieldrin, Coumaphos, Chlorpyriphos", "result": 0.335, "unit": "ppm"}, {"measurement": "LC50", "setting": "[4]; isolate resistant to Dieldrin, Coumaphos, Fluazuron", "result": 0.270, "unit": "ppm"}, {"measurement": "LC50", "setting": "[4]; isolate: Fully susceptible", "result": 0.288, "unit": "ppm"}, {"measurement": "activity against bed bugs (≥80% inhibition, killed+damaged)", "setting": "[5]; 5 mg/kg oral, Day 0", "result": "immediate activity"}, {"measurement": "activity against bed bugs (≥80% inhibition, killed+damaged)", "setting": "[5]; 5 mg/kg oral, after 7 days", "result": "activity"}, {"measurement": "activity against bed bugs (≥80% inhibition, killed+damaged)", "setting": "[5]; 5 mg/kg subcutaneous, Day 0", "result": "immediate activity"}, {"measurement": "activity against bed bugs (≥80% inhibition, killed+damaged)", "setting": "[5]; [10]", "result": "activity"}, {"measurement": "activity against bed bugs (≥80% inhibition, killed+damaged)", "setting": "[5]; [11]", "result": "activity"}]}, {"compound": "O=C(Nc1ncc(F)cc1F)c1cc(NC(=O)[C@H]2[C@H](c3cc(Cl)cc(Cl)c3)C2(Cl)Cl)ccc1Cl", "note": "[Compound 453]", "values": [{"measurement": "EC50", "setting": "[6]; after 24 hours", "result": 0.072, "unit": "ppb"}, {"measurement": "EC50", "setting": "[6]; after 48 hours", "result": 0.035, "unit": "ppb"}, {"measurement": "effectiveness against sensitive isolate and multi-resistant isolate", "setting": "[7]", "result": "equally effective"}, {"measurement": "EC50", "setting": "[7]; multi-resistant isolate, after 24 hours", "result": 1.96, "unit": "ppb"}, {"measurement": "EC50", "setting": "[7]; multi-resistant isolate, after 48 hours", "result": 0.64, "unit": "ppb"}, {"measurement": "EC50", "setting": "[7]; sensitive isolate, after 24 hours", "result": 1.20, "unit": "ppb"}, {"measurement": "EC50", "setting": "[7]; sensitive isolate, after 48 hours", "result": 0.29, "unit": "ppb"}, {"measurement": "activity against bed bugs (≥80% inhibition, killed+damaged)", "setting": "[5]; 5 mg/kg oral, Day 0", "result": "immediate activity"}, {"measurement": "activity against bed bugs (≥80% inhibition, killed+damaged)", "setting": "[5]; 5 mg/kg oral, after 7 days", "result": "activity"}, {"measurement": "activity against bed bugs (≥80% inhibition, killed+damaged)", "setting": "[5]; 5 mg/kg oral, after 10 days", "result": "activity"}, {"measurement": "activity against bed bugs (≥80% inhibition, killed+damaged)", "setting": "[5]; 5 mg/kg subcutaneous, Day 0", "result": "immediate activity"}, {"measurement": "activity against bed bugs (≥80% inhibition, killed+damaged)", "setting": "[5]; [10]", "result": "activity"}, {"measurement": "activity against bed bugs (≥80% inhibition, killed+damaged)", "setting": "[5]; [11]", "result": "activity"}, {"measurement": "effective to control bed bugs", "setting": "[5]; 5 mg/kg, at least until Day 10, both administration routes (oral, subcutaneous)", "result": 100, "unit": "%"}, {"measurement": "prophylactic efficacy at re-infestation on Day 17 (% reduction vs control)", "setting": "Lepeophtheirus salmonis [8]", "result": 100, "unit": "%"}, {"measurement": "therapeutic efficacy against (pre-)adult sea lice", "setting": "Lepeophtheirus salmonis [9]; [12]", "result": 100, "unit": "%"}, {"measurement": "therapeutic efficacy against juvenile sea lice", "setting": "Lepeophtheirus salmonis [9]; [12]", "result": 100, "unit": "%"}, {"measurement": "prophylactic efficacy against re-infestation", "setting": "Lepeophtheirus salmonis [9]; re-infestation D14", "result": 100, "unit": "%"}, {"measurement": "prophylactic efficacy against re-infestation", "setting": "Lepeophtheirus salmonis [9]; re-infestation D28", "result": 99.9, "unit": "%"}, {"measurement": "prophylactic efficacy against re-infestation", "setting": "Lepeophtheirus salmonis [9]; re-infestation D42", "result": 86.0, "unit": "%"}]}]}
